According to patent publication US12616681B2, “Compositions and methods for treating renal injury” (priority 2019, dated 2026):

Experiments:
Assay type in all cases: in vivo, C57/BL6 mice
[1] = tested on: mice with ischemic AKI (bilateral renal IRI); assay: Renal IRI model: necrotic and apoptotic cell death, gross pathology; conditions: 24 h after renal IRI; 5 mg/kg ip three times
Excerpt: To evaluate necrosis, 5-μm-thick paraffin sections were stained with hematoxylin and eosin. Tubular injury of individual slides was scored semi-quantitatively according to a scoring system by a pathologist in a blinded manner. The scoring system was as follows: 0, no damage; 1, patchy isolated unicellular necrosis; 2, tubular necrosis <25%; 3, tubular necrosis 25-50%; and 4, tubular necrosis >50%. To analyze the frequency of apo ptosis, 5-μm-thick paraffin sections were subjected to a TUNEL assay (Millipore, Temecula, CA) according to the manufacturer's protocol. TUNEL-positive cells were counted in at least five separate fields (64 magnification) in the outer medulla, and the apoptosis index (in %, number of apoptosis cells/total number of cells) was calculated using GENASIS software.

[2] = tested on: mice with ischemic AKI (bilateral renal IRI); assay: Renal IRI model: proinflammatory cytokines and HMGB1; conditions: 24 h after renal IRI, vs IRI-vehicle mice
Description: Inflammatory cytokine mRNA and protein levels were measured by real-time PCR and ELISA. Kidney tissue and serum were harvested after reperfusion for 24 h. Total RNA was extracted from frozen kidney tissue using TRIzol reagent (ThermoFisher Scientific) according to the manufacturer's protocol. RNA was converted to cDNA using oligo-dT primers. IL-17, TNF-α, and IL-1b mRNA levels were determined by real-time PCR. Serum IL-17 (R&D Systems), TNF-α (R&D Systems), and IL-10 (R&D Systems) were measured using commercial ELISA kits according to the manufacturer's instructions.

[3] = tested on: mice with ischemic AKI (bilateral renal IRI); assay: Renal IRI model: renal and serum PGE2 after a single pre-IRI dose
Description: After reperfusion for 24 h, kidney tissues (˜20 mg) were homogenized in cold PBS containing indomethacin (10 μg/mL) and then centrifuged for 10 min at 12,000 rpm. Protein concentrations of supernatant were determined by BCA assay (ThermoFisher Scientific, Rockford, IL). The PGE2 level was measured using a PGE2 ELISA kit (R&D Systems, Minneapolis, MN) in triplicate. PGE2 levels were expressed as nanograms of PGE2 per milligram of protein. Renal function was assessed by determining the serum levels of blood urea nitrogen (BUN; Abcam), serum creatinine (Agilent 6410 LC-MS/MS, Agilent, Santa Clara, CA), lipocalin-2 (R&D Systems), and kidney injury molecule-1 (KIM-1; R&D Systems) after reperfusion for 24 h. Measurement of serum creatinine was by HPLC. Serum creatinine was assessed using an Agilent 6410 LC-MS/MS system coupled with an Agilent 1200 series HPLC system (Agilent). The sample preparation for serum creatinine was that 50 μL of serum samples were mixed with 100 μL of acetonitrile that contained creatinine-d3 as an internal standard (5 μg/mL). The mixture was centrifuged at 13,000 rpm for 10 min after vigorous vortex, and 1 μL of supernatant was then injected into the LC-MS/MS system. The chromatography separation was performed on a Hypersil GOLD C18 column (150×2.1 mm, 3 m, Thermo Scientific) using a mobile phase of 0.1% formic acid solution and acetonitrile [70:30 (vol/vol)]. The flow rate was 0.2 mL/min. Electrospray ionization was performed in the positive ion mode. The capillary voltage was set at 4,000 V. Nitrogen as the nebulizing gas was set at 15 psi, and the drying gas temperature was set at 300° C., with a flow rate of 6 L/min. The multiple-reaction monitoring mode using specific precursor/production transition was used for quantification. Detection of ions was performed by monitoring m/z 114.1→44.1 for creatinine and 117.1→77.1 for creatinine-d3. The collision energies were 10 and 15 eV for creatinine and creatinine-d3, respectively. The peak areas for all analytes were integrated automatically using Agilent Mass Hunter Analysis software (version B.01.04).

[4] = tested on: contrast-induced acute kidney injury (CIAKI) mice; assay: CIAKI mouse model: renal function (serum creatinine, NGAL, KIM-1)
Description: Female mice were injected with 10 gI/kg of Visipaque (iodixanol) via the tail vein. […] For inhibition of the EP4s, mice were treated with 0.2 mg/kg/day of ONO-AE3-208 by subcutaneous injection for 14 days. Serum and kidney tissue were collected 48 h after the iodixanol injection.
Renal function was assessed by determining the serum levels of creatinine (Arbor Assays, Ann Arbor, MI, USA), NGAL (R&D Systems), and KIM-1 (R&D Systems) at 48 h after the iodixanol injection.

CCCC[S+]([O-])c1sc2nc(-c3cccs3)cc(-c3ccccc3)c2c1N (stereo not shown) [SW033291]
count of TUNEL-positive apoptotic cells [1]: reducing
histological renal injury score [1]: reducing
tissue congestion in the outer medulla (gross pathology) [1]: ameliorated
HMGB1 levels in kidney tissue [2]: reduced
induction of IL-10 (protein only) [2]: blocked induction
induction of IL-17 [2]: blocked induction
induction of TNF-α [2]: blocked induction
renal PGE2 levels ([3]; 24 h, single pretreatment dose): significantly decreased
serum PGE2 levels ([3]; 24 h, single pretreatment dose): significantly decreased
post-IRI peaks of renal PGE2 (immediate and 14 h) ([3]; single pre-IRI dose): substantially block
serum creatinine, absence or presence of ONO-AE3-208 ([4]; CIAKI mice (FIG. 15E), SW033291 line = CM + SW033291, ONO-AE3-208 line = CM + ONO-AE3-208 + SW033291): 0.50 ± 0.10 mg/dL
serum NGAL, absence or presence of ONO-AE3-208 ([4]; CIAKI mice (FIG. 15F), SW033291 line = CM + SW033291, ONO-AE3-208 line = CM + ONO-AE3-208 + SW033291): 140.41 ± 25.52 ng/mL
serum KIM-1, absence or presence of ONO-AE3-208 ([4]; CIAKI mice (FIG. 15G), SW033291 line = CM + SW033291, ONO-AE3-208 line = CM + ONO-AE3-208 + SW033291): 0.09 ± 0.05 ng/mL
serum creatinine ([4]; CIAKI mice, CM + drug, 48 h after CM (FIG. 11C)): 1.10 ± 0.11 mg/dL
serum NGAL ([4]; CIAKI mice, CM + drug, 48 h after CM (FIG. 11D)): 140.41 ± 25.52 ng/mL
serum KIM-1 ([4]; CIAKI mice, CM + drug, 48 h after CM (FIG. 11E)): 0.43 ± 0.30 ng/mL
